Data published in patent US20250034184A1, “QUATERNARY PHOSPHONIUM COMPOUNDS AND USES THEREOF” (Emory University, priority 2021, published 2025).
Like-named read-outs stand apart in the source and are kept apart here.

Legend:
[1] = system: A. baumannii strain ATCC 19606; format: cell-based, Acinetobacter baumannii
[2] = system: A. baumannii pan-resistant clinical isolate, MRSN 17493; format: cell-based, Acinetobacter baumannii
[3] = system: Escherichia coli (MC4100); assay: microbe, parasite or virus in culture; format: cell-based
[4] = system: red blood cell (RBC)
[5] = system: Pseudomonas aeruginosa (PAO1); assay: microbe, parasite or virus in culture; format: cell-based
[6] = system: community-acquired methicillin-resistant S. aureus (CA-MRSA; USA 300-0114); assay: microbe, parasite or virus in culture; format: cell-based
[7] = system: methicillin-susceptible S. aureus (SH1000); assay: microbe, parasite or virus in culture; format: cell-based
[8] = system: hospital-acquired methicillin-resistant S. aureus (HA-MRSA; ATCC 33591); assay: microbe, parasite or virus in culture; format: cell-based
[9] = system: Enterococcus faecalis (OG1RF); assay: microbe, parasite or virus in culture; format: cell-based
[10] = system: red blood cell (RBC); assay: Red blood cell (RBC) lysis (Lysis20); details: RBC lysis as proxy for toxicity
[11] = SH1000, […] DMSO carrier at highest test concentration (250 μM)

Compound | Minimum Inhibitory Concentration E. coli [3] [µM] | Lys20 [4] [µM] | Minimum Inhibitory Concentration Pa [5] [µM] | Minimum Inhibitory Concentration CA-MRSA [6] [µM] | Minimum Inhibitory Concentration MSSA [7] [µM] | Minimum Inhibitory Concentration HA-MRSA [8] [µM] | Minimum Inhibitory Concentration E. faecalis [9] [µM] | other results
CCCCCCCCCC[N+](C)(C)CCCCCCCCCC.[Cl-] [DDAC] |  |  |  |  |  |  |  | MBEC [1]: 1000 µM; MBEC [2]: 500 µM
benzalkonium chloride [BAC, reference compound] | 63 | 16 | 250 | 4 | 4 | 8 | 250 | MBEC [1]: 2000 µM; MBEC [2]: 2000 µM
CCCCCCCCCCCC[P+](CC[P+](CCCCCCCCCCCC)(c1ccccc1)c1ccccc1)(CC[P+](CCCCCCCCCCCC)(c1ccccc1)c1ccccc1)CC[P+](CCCCCCCCCCCC)(c1ccccc1)c1ccccc1 [4P-12,12,12,12, ((dodecylphosphoniotriyl)tris(ethane-2,1-diyl))tris(dodecyldiphenylphosphonium)] | 250 | 4 | >250 | 16 | 16 | 63 | 250 | 
CCCCCCCCCCC[n+]1ccc(CCCc2cc[n+](CCCCCCCCCCC)cc2)cc1 [2Pyr-11,11, reference compound] |  | 4 |  |  |  |  |  | MIC ([3]; Escherichia coli, read-out: Minimum Inhibitory Concentration E. coli): 2 µM; MIC ([5]; Pseudomonas aeruginosa, PAO1, read-out: Minimum Inhibitory Concentration Pa): 16 µM; MIC ([6]; Staphylococcus aureus, read-out: Minimum Inhibitory Concentration CA-MRSA): 2 µM; MBEC [1]: 1000 µM; MIC ([7]; Staphylococcus aureus, MSSA, read-out: Minimum Inhibitory Concentration MSSA): 1 µM; MIC ([8]; Staphylococcus aureus, read-out: Minimum Inhibitory Concentration HA-MRSA): 2 µM; MBEC [2]: 500 µM; MIC ([9]; Enterococcus faecalis, read-out: Minimum Inhibitory Concentration E. faecalis): 8 µM
CCCCCCCCCCCC[P+](c1ccccc1)(c1ccccc1)c1ccccc1 [TPP-12, dodecyltriphenylphosphonium] | 250 | 8 | 63 | 1 | 0.5 | 2 | 63 | 
CCCCCCCC[P+](c1ccccc1)(c1ccccc1)c1ccccc1 [TPP-8, octyltriphenylphosphonium] | >250 | 63 | >250 | 4 | 4 | 125 | >250 | 
CCCCCCCCCCCC[P+](CC[P+](CCCCCCCCCCCC)(c1ccccc1)c1ccccc1)(CC[P+](CCCCCCCCCCCC)(c1ccccc1)c1ccccc1)c1ccccc1 [P2P2P-12,12,12, ((dodecyl(phenyl)phosphoniodiyl)bis(ethane-2,1-diyl))bis(dodecyldiphenylphosphonium)] | 125 | 1 | >250 | 4 | 2 | 8 | 125 | 
CCCCCCCCCCC[P+](CC[P+](CCCCCCCCCCC)(c1ccccc1)c1ccccc1)(CC[P+](CCCCCCCCCCC)(c1ccccc1)c1ccccc1)CC[P+](CCCCCCCCCCC)(c1ccccc1)c1ccccc1 [4P-11,11,11,11, ((undecylphosphoniotriyl)tris(ethane-2,1-diyl))tris(diphenyl(undecyl)phosphonium)] | 125 | 4 | >250 | 32 | 16 | 125 | 125 | 
CCCCCCCCCCCCC[P+](CC[P+](CCCCCCCCCCCCC)(c1ccccc1)c1ccccc1)(CC[P+](CCCCCCCCCCCCC)(c1ccccc1)c1ccccc1)c1ccccc1 [P2P2P-13,13,13, ((phenyl(tridecyl)phosphoniodiyl)bis(ethane-2,1-diyl))bis(diphenyl(tridecyl)phosphonium)] | 125 | 2 | >250 | 4 | 2 | 16 | 125 | 
CCCCCCCCCCC[P+](c1ccccc1)(c1ccccc1)c1ccccc1 [TPP-11, triphenyl(undecyl)phosphonium] | 125 | 16 | 250 | 1 | 1 | 4 | 125 | 
CCCCCCCCCCC[P+](CC[P+](CCCCCCCCCCC)(c1ccccc1)c1ccccc1)(CC[P+](CCCCCCCCCCC)(c1ccccc1)c1ccccc1)c1ccccc1 [P2P2P-11,11,11, ((phenyl(undecyl)phosphoniodiyl)bis(ethane-2,1-diyl))bis(diphenyl(undecyl)phosphonium)] | 63 | 1 | >250 | 4 | 2 | 4 | 63 | 
octadecyltriphenylphosphonium [TPP-18] |  |  |  |  |  |  |  | Minimum Inhibitory Concentration E. coli ([3]; MC4100): 125 µM; Lys20 [10]: 4 µM; Minimum Inhibitory Concentration Pa ([5]; P. aeruginosa PAO1): 125 µM; Minimum Inhibitory Concentration CA-MRSA ([6]; USA 300-0114): 8 µM; Minimum Inhibitory Concentration MSSA [7, 11]: 4 µM; Minimum Inhibitory Concentration HA-MRSA ([8]; ATCC 33591): 8 µM; Minimum Inhibitory Concentration E. faecalis ([9]; OG1RF): 16 µM
CCCCCCCCCCCCCC[P+](CC[P+](CCCCCCCCCCCCCC)(c1ccccc1)c1ccccc1)(CC[P+](CCCCCCCCCCCCCC)(c1ccccc1)c1ccccc1)c1ccccc1 [P2P2P-14,14,14, ((phenyl(tetradecyl)phosphoniodiyl)bis(ethane-2,1-diyl))bis(diphenyl(tetradecyl)phosphonium)] |  |  |  |  |  |  |  | Minimum Inhibitory Concentration E. coli ([3]; MC4100): 250 µM; Lys20 [10]: 1 µM; Minimum Inhibitory Concentration Pa ([5]; P. aeruginosa PAO1): >250 µM; Minimum Inhibitory Concentration CA-MRSA ([6]; USA 300-0114): 16 µM; Minimum Inhibitory Concentration MSSA [7, 11]: 16 µM; Minimum Inhibitory Concentration HA-MRSA ([8]; ATCC 33591): 32 µM; Minimum Inhibitory Concentration E. faecalis ([9]; OG1RF): 250 µM
